Experimental data from US7786083B2, “Metastin derivatives and use thereof” (Takeda Pharmaceutical Company Limited, priority 2006, dated 2010).
*1 amine or outer side, *2 acyl side, *3 side chain or, on linkers, in order; H or OH if unused. Where a SMILES comes first, the peptide text is derived from it. [ ]: non-standard residue; d: D form. Glyψ(E-CHCH)Leu = CC(C)C[C@H](/C=C/CN[*:1])C(=O)[*:2]; X2 = O=C(/C=C/[C@@H](O)[C@H](Cc1ccccc1)N[*:1])[*:2]; Arg(Me) = CNC(=N)NCCC[C@H](N)C(=O)O; Dap(CONH2) = NC(=O)NC[C@H](N)C(=O)O; Ala(cPr) = N[C@@H](CC1CC1)C(=O)O; Hyp = O=C(O)[C@@H]1C[C@@H](O)CN1; Cha = N[C@@H](CC1CCCCC1)C(=O)O; Cit = NC(=O)NCCC[C@H](N)C(=O)O; Cba = N[C@@H](CC1CCC1)C(=O)O; Nva = CCC[C@H](N)C(=O)O; Aib = CC(C)(N)C(=O)O

System: metastin receptors
Experiment: Measurement of agonist activity by assaying changes in intracellular calcium ion level (FLIPR, Fluo-4 NW)
Format: cell-based, human
Settings: specific activity of the EC50 of a test compound based on the EC50 of Metastin (45-54), metastin receptor expression CHO cells
Procedure: 1) Preparation of Human Metastin and Rat Metastin Stable Expression Cell Lines
Human metastin and rat metastin stable expression cell lines were obtained by transfecting the expression plasmid for animal cells into CHO/dhfr^− cells using CellPhect Transfection Kit (manufactured by GE Healthcare). First, 240 μL of Buffer A (attached to CellPhect Transfection Kit) was added to 9.6 μg of plasmid DNA dissolved in 240 μL of distilled water followed by stirring. After the mixture was settled for 10 minutes, 480 μL of Buffer B (attached to CellPhect Transfection Kit) was added to the mixture, which was vigorously stirred to form liposomes containing the DNA. Then, 4×10^5 CHO/dhfr^− cells (obtained from ATCC) were inoculated on a 60 mm Petri dish. After culturing the cells in Ham's F-12 medium (manufactured by Nissui Seiyaku Co., Ltd.) supplemented with 10% fetal bovine serum (manufactured by BIO […], Inc.) at 37° C. for 2 days in 5% carbon dioxide gas, […] of the liposomes were dropwise added to the cells on the Petri dish. After culturing the cells in a CO2 incubator (5% CO2, 37° C.) for 6 hours, the cells were washed twice with serum-free Ham's F-12 medium and 3 mL of 15% glycerol was added to the cells on the Petri dish followed by treatment for 2 minutes. The cells were again washed twice with serum-free Ham's F-12 medium followed by incubation in Ham's F-12 medium supplemented with 10% fetal bovine serum in a CO2 incubator (5% CO2, 37° C.) for 15 hours. The cells were dispersed by trypsin treatment to recover from the Petri dish. The recovered cells were inoculated on a 6-well plate in 1.25×10^4 cells each/well and incubation was initiated in a CO2 incubator (5% CO2, 37° C.) in Dulbecco's modified Eagle medium (DMEM, manufactured by Nissui Seiyaku) containing 10% dialyzed fetal bovine serum (manufactured by JRH BIOSCIENCES, Inc.). The plasmid-transfected CHO transformants grew in the medium but the non-transfected cells gradually died, accordingly the medium was exchanged on Days 1 and 2 after the initiation of incubation to remove the dead cells. Approximately 20 colonies of the CHO transformants that kept growing on Days 8 to 10 after the incubation were isolated. From the cells in these colonies, cells showing high reactivity with the ligand peptide metastin (hereinafter merely referred to as h175 KB19 and h175 KB29 strains) were selected to provide for the following experiment.
Human metastin expression CHO cell line (h175 KB19 strain is described in a separate section) and rat metastin expression CHO cell line (h175 KB29 strain is described in a separate section) were seeded in a 96-well plate (type 3904, manufactured by Corning) at 3×10^4 cells/well, followed by incubation in a CO2 incubator (5% CO2, 37° C.) for 24 hours. For the medium, MEMα medium (nucleic acid-free, manufactured by Nikken Bio Medical Laboratory) supplemented with dialyzed 10% fetal bovine serum (manufactured by Thermo, MultiSer) was used.
3) Loading with Fluo-4 NW in Cells
As an assay buffer, 1× Hanks' balanced salt solution (HBSS, manufactured by GIBCO) supplemented with 0.1% BSA, 20 mM HEPES (pH 7.4, manufactured by GIBCO) and 1 mM Probenecid (manufactured by Molecular Probes) was prepared. The medium in the wells of the cell-seeded plate was removed and 100 μL each of the assay buffer (kept warm at 37° C.) was added to each well. After 10 mL of the assay buffer (the volume for assaying two plates) was charged in one Fluo-4NW dye mix (Component A, Fluo-4 NW calcium assay kit (starter pack), manufactured by Molecular Probes) bottle, the mixture was gently stirred to prepare the Fluo-4 NW loading solution. This loading solution was charged in each well by 50 μl each and reacted in a CO2 incubator (5% CO2, 37° C.) for 30 minutes for loading with Fluo-4 NW into the cells. Subsequently, the cells were settled at room temperature (25° C.) for 15 minutes and then used for assay.
4) Measurement of Agonist Activity […]

| Specific Activity | Compound |
| --- | --- |
| 0.5 | CCC[C@H](NC(=O)CNC(=O)[C@H](CC1CCCCC1)NC(=O)[C@@H](NC(=O)[C@H](CC(N)=O)NC(=O)[C@@H]1C[C@@H](O)CN1C(=O)[C@@H](Cc1ccc(O)cc1)NC(C)=O)[C@@H](C)O)C(=O)N[C@@H](CCCNC(=N)NC)C(=O)N[C@@H](Cc1c[nH]c2ccccc12)C(N)=O [Compound No. 921, des(1)-Ac-[D-Tyr2,Hyp3,Thr5,Cha6,Nva8,Arg(Me)9,Trp10]MS10] (Ac-[dY][Hyp]NT[Cha]G[Nva][Arg(Me)]W-NH2) |
| 0.9 | CNC(=N)NCCC[C@H](NC(=O)[C@@H](/C=C/CNC(=O)[C@H](CC1CCCCC1)NC(=O)[C@@H](NC(=O)[C@H](CCCNC(N)=O)NC(=O)[C@@H]1C[C@@H](O)CN1C(=O)[C@@H](Cc1ccc(O)cc1)NC(C)=O)[C@@H](C)O)CC(C)C)C(=O)N[C@@H](Cc1c[nH]c2ccccc12)C(N)=O [Compound No. 914, des(1)-Ac-[D-Tyr2,Hyp3,Cit4,Thr5,Cha6,Gly7Ψ((E)CH═CH)Leu8,Arg(Me)9,Trp10]MS10] (Ac-[dY][Hyp][Cit]T[Cha][Glyψ(E-CHCH)Leu][Arg(Me)]W-NH2) |
| 0.8 | CNC(=N)NCCC[C@H](NC(=O)[C@H](COC)NC(=O)CNC(=O)[C@H](Cc1ccccc1)NC(=O)[C@@H](NC(=O)[C@H](CC(N)=O)NC(=O)[C@@H]1C[C@@H](O)CN1C(=O)[C@@H](Cc1ccc(O)cc1)NC(C)=O)[C@@H](C)O)C(=O)N[C@@H](Cc1c[nH]c2ccccc12)C(N)=O [Compound No. 917, des(1)-Ac-[D-Tyr2,Hyp3,Thr5,Ser(Me)8,Arg(Me)9,Trp10]MS10] (Ac-[dY][Hyp]NTFGS(Me)[Arg(Me)]W-NH2) |
| 0.6 | CNC(=N)NCCC[C@H](NC(=O)[C@H](CC(C)C)NC(=O)NCC[C@H](Cc1ccccc1)NC(=O)[C@@H](NC(=O)[C@H](CC(N)=O)NC(=O)[C@@H]1C[C@@H](O)CN1C(=O)[C@@H](Cc1ccc(O)cc1)NC(C)=O)[C@@H](C)O)C(=O)N[C@@H](Cc1c[nH]c2ccccc12)C(N)=O [Compound No. 968, des(1)-Ac-[D-Tyr2,Hyp3,Thr5,Phe6Ψ(CH2CH2)AzaGly7,Arg(Me)9,Trp10)MS10] |
| 0.7 | CNC(=N)NCCC[C@H](NC(=O)[C@H](CC1CC1)NC(=O)CNC(=O)[C@H](CC1CCC1)NC(=O)[C@@H](NC(=O)[C@H](CC(N)=O)NC(=O)[C@@H]1C[C@@H](O)CN1C(=O)[C@@H](Cc1ccc(O)cc1)NC(C)=O)[C@@H](C)O)C(=O)N[C@@H](Cc1c[nH]c2ccccc12)C(N)=O [Compound No. 945, des(1)-Ac-[D-Tyr2,Hyp3,Thr5,Ala(cBu)6,Ala(cPr)8,Arg(Me)9,Trp10]MS10] (Ac-[dY][Hyp]NT[Cba]G[Ala(cPr)][Arg(Me)]W-NH2) |
| 0.6 | CC(=O)N[C@H](Cc1ccc(O)cc1)C(=O)N1C[C@H](O)C[C@H]1C(=O)N[C@@H](CC(N)=O)C(=O)N[C@H](C(=O)N[C@@H](CC1CCCCC1)C(=O)NC/C=C/[C@@H](CC(C)C)C(=O)N[C@@H](CCCNC(=N)N)C(=O)N[C@@H](Cc1c[nH]c2ccccc12)C(N)=O)[C@@H](C)O [Compound No. 926, des(1)-Ac-[D-Tyr2,Hyp3,Thr5,Cha6,Gly7Ψ((E)CH═CH)Leu8,Trp10]MS10] (Ac-[dY][Hyp]NT[Cha][Glyψ(E-CHCH)Leu]RW-NH2) |
| 0.5 | CNC(=N)NCCC[C@H](NC(=O)[C@H](COC)NC(=O)CNC(=O)[C@H](CC1CCCCC1)NC(=O)[C@@H](NC(=O)[C@H](CC(N)=O)NC(=O)[C@H](CCC(=O)O)NC(=O)[C@@H](Cc1ccc(O)cc1)NC(C)=O)[C@@H](C)O)C(=O)N[C@@H](Cc1c[nH]c2ccccc12)C(N)=O [Compound No. 923, des(1)-Ac-[D-Tyr2,Glu3,Thr5,Cha6,Ser(Me)8,Arg(Me)9,Trp10]MS10] (Ac-[dY]ENT[Cha]GS(Me)[Arg(Me)]W-NH2) |
| 0.8 | CNC(=N)NCCC[C@H](NC(=O)[C@H](CC1CC1)NC(=O)CNC(=O)[C@H](Cc1ccccc1)NC(=O)[C@@H](NC(=O)[C@H](CC(N)=O)NC(=O)[C@@H]1C[C@@H](O)CN1C(=O)[C@@H](Cc1ccc(O)cc1)NC(C)=O)[C@@H](C)O)C(=O)N[C@@H](Cc1c[nH]c2ccccc12)C(N)=O [Compound No. 916, des(1)-Ac-[D-Tyr2,Hyp3,Thr5,Ala(cPr)8,Arg(Me)9,Trp10]MS10] (Ac-[dY][Hyp]NTFG[Ala(cPr)][Arg(Me)]W-NH2) |

The next lines start with the molecule.

| Compound | Specific Activity |
| --- | --- |
| CNC(=N)NCCC[C@H](NC(=O)[C@H](CC(C)C)NC(=O)CNC(=O)[C@H](Cc1ccccc1)NC(=O)[C@@H](NC(=O)[C@H](CC(N)=O)NC(=O)[C@H](CCC(=O)O)NC(=O)[C@@H](Cc1ccc(O)cc1)NC(C)=O)[C@@H](C)O)C(=O)N[C@@H](Cc1c[nH]c2ccccc12)C(N)=O [Compound No. 852, des(1)-Ac-[D-Tyr2,Glu3,Thr5,Arg(Me)9,Trp10]MS10] (Ac-[dY]ENTFGL[Arg(Me)]W-NH2) | 0.5 |
| CNC(=N)NCCC[C@H](NC(=O)[C@H](CC(C)C)NC(=O)[C@H](COC)NC(=O)[C@H](Cc1ccccc1)NC(=O)[C@@H](NC(=O)[C@H](CC(N)=O)NC(=O)[C@@H]1C[C@@H](O)CN1C(=O)[C@@H](Cc1ccc(O)cc1)NC(C)=O)[C@@H](C)O)C(=O)N[C@@H](Cc1c[nH]c2ccccc12)C(N)=O [Compound No. 828, des(1)-Ac-[D-Tyr2,Hyp3,Thr5,Ser(Me)7,Arg(Me)9,Trp10]MS10] (Ac-[dY][Hyp]NTFS(Me)L[Arg(Me)]W-NH2) | 1.2 |
| CNC(=N)NCCC[C@H](NC(=O)[C@H](CC(C)C)NC(=O)/C=C/[C@@H](O)[C@H](Cc1ccccc1)NC(=O)[C@@H](NC(=O)[C@H](CC(N)=O)NC(=O)[C@@H]1C[C@@H](O)CN1C(=O)[C@@H](Cc1ccc(O)cc1)NC(C)=O)[C@@H](C)O)C(=O)N[C@@H](Cc1c[nH]c2ccccc12)C(N)=O [Compound No. 866, des(1)-Ac-[D-Tyr2,Hyp3,Thr5,Phe6Ψ((R)CHOH—(E)CH=)Gly7,Arg(Me)9,Trp10]MS10] (Ac-[dY][Hyp]NT[X2]L[Arg(Me)]W-NH2) | 1.4 |
| CNC(=N)NCCC[C@H](NC(=O)[C@H](CC(C)C)NC(=O)C(C)(C)NC(=O)[C@H](Cc1ccccc1)NC(=O)[C@@H](NC(=O)[C@H](CC(N)=O)NC(=O)[C@@H]1C[C@@H](O)CN1C(=O)[C@@H](Cc1ccc(O)cc1)NC(C)=O)[C@@H](C)O)C(=O)N[C@@H](Cc1c[nH]c2ccccc12)C(N)=O [Compound No. 811, des(1)-Ac-[D-Tyr2,Hyp3,Thr5,Aib7,Arg(Me)9,Trp10]MS10] (Ac-[dY][Hyp]NTF[Aib]L[Arg(Me)]W-NH2) | 1.5 |
| CNC(=N)NCCC[C@H](NC(=O)[C@H](CC1CC1)NC(=O)CNC(=O)[C@H](CC1CCCCC1)NC(=O)[C@@H](NC(=O)[C@H](CC(N)=O)NC(=O)[C@@H]1C[C@@H](O)CN1C(=O)[C@@H](Cc1ccc(O)cc1)NC(C)=O)[C@@H](C)O)C(=O)N[C@@H](Cc1c[nH]c2ccccc12)C(N)=O [Compound No. 894, des(1)-Ac-[D-Tyr2,Hyp3,Thr5,Cha6,Ala(cPr)8,Arg(Me)9,Trp10]MS10] (Ac-[dY][Hyp]NT[Cha]G[Ala(cPr)][Arg(Me)]W-NH2) | 0.5 |
| CNC(=N)NCCC[C@H](NC(=O)[C@@H](/C=C/CNC(=O)[C@H](Cc1ccccc1)NC(=O)[C@@H](NC(=O)[C@H](CNC(N)=O)NC(=O)[C@H](CCC(=O)O)NC(=O)[C@@H](Cc1ccc(O)cc1)NC(C)=O)[C@@H](C)O)CC(C)C)C(=O)N[C@@H](Cc1c[nH]c2ccccc12)C(N)=O [Compound No. 908, des(1)-Ac-[D-Tyr2,Glu3,Alb4,Thr5,Gly7Ψ((E)CH═CH)Leu8,Arg(Me)9,Trp10]MS10] (Ac-[dY]E[Dap(CONH2)]TF[Glyψ(E-CHCH)Leu][Arg(Me)]W-NH2) | 0.5 |
